Among the data in the NIST ThermoML archive (doi:10.1016/j.fluid.2018.02.015) are mass density and refractive index values, retold here.

Numbers after ± are expanded uncertainties.

The conditions of data set [1]: 99.9 kPa, Liquid, Vibrating tube method.
Data set [2] can be described thus: refractive index (Na D-line) (dimensionless). To be noted: 99.9 kPa, Liquid, Standard Abbe refractometry.

In the case of `CCCCCCCCCC` [decane], the mass density in data set [1] (293.15 K) was 729.762 ± 0.33 kg/m3; in data set [1] (294.15 K), 728.496 ± 0.29 kg/m3; in data set [1] (295.15 K) it was 727.738 ± 0.26 kg/m3; in data set [1] (296.15 K) it was 726.983 ± 0.26 kg/m3; in data set [1] (297.15 K), 726.227 ± 0.26 kg/m3; in data set [1] (298.15 K), 725.467 ± 0.26 kg/m3. Further, in data set [1] (299.62 K), the mass density is given as 724.355 ± 0.26 kg/m3. For the same compound, the refractive index was found to be 1.41196 ± 0.0005 in data set [2] (293.15 K) and 1.40964 ± 0.0005 in data set [2] (298.15 K).
For `CCCCCCCCC` [nonane], the mass density worked out at 717.883 ± 0.33 kg/m3 in data set [1] (293.15 K); 716.601 ± 0.29 kg/m3 in data set [1] (294.15 K); 715.824 ± 0.26 kg/m3 in data set [1] (295.15 K); 715.045 ± 0.26 kg/m3 in data set [1] (296.15 K); 714.268 ± 0.25 kg/m3 in data set [1] (297.15 K); 713.689 ± 0.24 kg/m3 in data set [1] (298.15 K). Further, the refractive index in data set [2] (293.15 K) amounted to 1.40595 ± 0.00049; in data set [2] (298.15 K), 1.40329 ± 0.00049.
As for `CCCCCCCCCCC` [undecane], the mass density is reported as 739.96 ± 0.29 kg/m3 in data set [1] (293.15 K); 737.96 ± 0.27 kg/m3 in data set [1] (295.15 K); 736.48 ± 0.25 kg/m3 in data set [1] (297.15 K); 735.73 ± 0.25 kg/m3 in data set [1] (298.15 K); 734.56 ± 0.25 kg/m3 in data set [1] (299.75 K). The refractive index in data set [2] (293.15 K) was determined as 1.41726 ± 0.00049; in data set [2] (298.15 K), 1.41502 ± 0.00049.
